From article PMC2697495 (The Journal of pharmacy and pharmacology, 2008)
Marks after values point to notes of the source that are not given here.

Experiments:
[1] = tested on: pooled human liver microsomes (pHLMs); assay: Codeine glucuronidation by pHLMs; assay type: biochemical; conditions: for Codeine glucuronidation, % of the control activity (measured at 0 mM): pHLM, 1 mM codeine, n=3
UGT2B15 = UGT2B15 (Homo sapiens, UniProt P54855); assay: e-4-hydroxy-tamoxifen glucuronidation by insect cell-expressed UGT2B15; assay type: biochemical; conditions: 20 mM saccharolactone, pH-adjusted to 7.5
UGT2B4 = UGT2B4 (Homo sapiens, UniProt P06133); assay: Codeine glucuronidation by recombinant UGT2B4; assay type: biochemical; conditions: 1 mM codeine, n=3
UGT1A6 (insect) = target: T1, UGT1A6 (insect) (Homo sapiens, UniProt P19224); assay: 5-HT glucuronidation by recombinant UGT1A6; assay type: biochemical; conditions: for 5-HT glucuronidation, % of the control activity (measured at 0 mM): UGT1A6 (insect), 4 mM 5-HT, n=3
T1 sequence (P19224 27-532): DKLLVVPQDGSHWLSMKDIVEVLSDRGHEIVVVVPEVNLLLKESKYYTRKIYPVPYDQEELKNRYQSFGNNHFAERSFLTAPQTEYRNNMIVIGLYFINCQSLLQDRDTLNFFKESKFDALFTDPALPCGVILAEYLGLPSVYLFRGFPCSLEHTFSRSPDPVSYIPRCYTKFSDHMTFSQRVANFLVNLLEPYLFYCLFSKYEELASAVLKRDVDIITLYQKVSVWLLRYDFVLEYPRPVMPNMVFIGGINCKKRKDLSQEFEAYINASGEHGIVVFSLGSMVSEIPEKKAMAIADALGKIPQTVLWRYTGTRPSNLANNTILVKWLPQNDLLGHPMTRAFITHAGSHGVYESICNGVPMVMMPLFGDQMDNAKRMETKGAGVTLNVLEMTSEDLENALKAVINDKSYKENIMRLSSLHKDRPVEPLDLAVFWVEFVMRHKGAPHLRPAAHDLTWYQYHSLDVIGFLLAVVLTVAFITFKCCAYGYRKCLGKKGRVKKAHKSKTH

rats = conditions: in vivo in rats; ref Brunelle and Verbeeck (1997); cited from earlier work
UGT1A1 = target: T2, UGT1A1 (Homo sapiens, UniProt P22309); assay: Estradiol-3 glucuronidation by recombinant UGT1A1; assay type: biochemical; conditions: for Estradiol-3 glucuronidation, % of the control activity (measured at 0 mM): UGT1A1, 100 μM estradiol, n=3
T2 sequence (P22309 26-533): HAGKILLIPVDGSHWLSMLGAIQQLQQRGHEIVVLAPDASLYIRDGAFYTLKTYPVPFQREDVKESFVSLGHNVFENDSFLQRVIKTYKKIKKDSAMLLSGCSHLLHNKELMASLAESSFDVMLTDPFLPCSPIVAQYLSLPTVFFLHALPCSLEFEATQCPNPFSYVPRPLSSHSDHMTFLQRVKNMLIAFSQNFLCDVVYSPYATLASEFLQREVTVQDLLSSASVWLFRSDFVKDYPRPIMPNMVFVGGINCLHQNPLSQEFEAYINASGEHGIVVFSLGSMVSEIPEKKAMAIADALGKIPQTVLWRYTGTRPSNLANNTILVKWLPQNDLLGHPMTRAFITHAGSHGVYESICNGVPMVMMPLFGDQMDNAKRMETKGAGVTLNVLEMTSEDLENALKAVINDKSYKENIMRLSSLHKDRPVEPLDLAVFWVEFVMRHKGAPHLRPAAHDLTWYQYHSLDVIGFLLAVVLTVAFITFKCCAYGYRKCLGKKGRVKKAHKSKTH

[2] = tested on: pooled human liver microsomes (pHLMs); assay: AZT glucuronidation by pHLMs; assay type: biochemical; conditions: pHLM, 500 μM AZT, n=3
rat liver microsomes = conditions: 4 mM saccharolactone, ref Brunelle & Verbeeck 1993; cited from earlier work
UGT1A9 = UGT1A9 (Homo sapiens, UniProt O60656); assay: Salicylic acid; assay type: biochemical; conditions: 5 mM salicylic acid, n=3
HLMs = conditions: 5 mM saccharolactone, ref Kemp et al 2002; cited from earlier work
[3] = Effect of saccharolactone on pH of 50 mM potassium phosphate incubation buffer; assay type: physicochemical
[4] = tested on: pooled human liver microsomes (pHLMs); assay: Trifluoperazine glucuronidation by pHLMs; assay type: biochemical; conditions: pHLM, 200 μM trifluoperazine, n=3
[5] = tested on: pooled human liver microsomes (pHLMs); assay: Estradiol-3 glucuronidation by pHLMs; assay type: biochemical; conditions: for Estradiol-3 glucuronidation, % of the control activity (measured at 0 mM): pHLM, 100 μM estradiol, n=3
UGT1A6 (HEK293) = target: T3, UGT1A6 (HEK293) (Homo sapiens, UniProt P19224); assay: 5-HT glucuronidation by recombinant UGT1A6; assay type: biochemical; conditions: for 5-HT glucuronidation, % of the control activity (measured at 0 mM): UGT1A6 (HEK293), 4 mM 5-HT, n=3
T3 sequence (P19224 27-532): T1 sequence (P19224 27-532)

[6] = tested on: pooled human liver microsomes (pHLMs); assay: 5-HT glucuronidation by pooled human liver microsomes; assay type: biochemical; conditions: pHLM, 4 mM 5-HT, n=3

Chain of UGT2B4 (P06133 24-528): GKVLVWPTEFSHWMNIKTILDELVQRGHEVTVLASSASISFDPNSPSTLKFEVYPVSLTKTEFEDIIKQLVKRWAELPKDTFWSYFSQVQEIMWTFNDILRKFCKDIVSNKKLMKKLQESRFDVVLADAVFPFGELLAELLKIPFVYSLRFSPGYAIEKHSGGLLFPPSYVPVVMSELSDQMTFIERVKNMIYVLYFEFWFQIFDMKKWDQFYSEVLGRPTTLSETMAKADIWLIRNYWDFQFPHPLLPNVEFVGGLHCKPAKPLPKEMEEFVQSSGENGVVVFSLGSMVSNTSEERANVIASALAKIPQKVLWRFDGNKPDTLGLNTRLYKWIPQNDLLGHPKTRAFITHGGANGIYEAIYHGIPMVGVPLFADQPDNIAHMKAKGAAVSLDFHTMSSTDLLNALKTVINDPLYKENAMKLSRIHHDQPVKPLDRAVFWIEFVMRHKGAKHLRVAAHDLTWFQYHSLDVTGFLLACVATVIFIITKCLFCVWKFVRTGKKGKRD
Chain of UGT1A9 (O60656 26-530): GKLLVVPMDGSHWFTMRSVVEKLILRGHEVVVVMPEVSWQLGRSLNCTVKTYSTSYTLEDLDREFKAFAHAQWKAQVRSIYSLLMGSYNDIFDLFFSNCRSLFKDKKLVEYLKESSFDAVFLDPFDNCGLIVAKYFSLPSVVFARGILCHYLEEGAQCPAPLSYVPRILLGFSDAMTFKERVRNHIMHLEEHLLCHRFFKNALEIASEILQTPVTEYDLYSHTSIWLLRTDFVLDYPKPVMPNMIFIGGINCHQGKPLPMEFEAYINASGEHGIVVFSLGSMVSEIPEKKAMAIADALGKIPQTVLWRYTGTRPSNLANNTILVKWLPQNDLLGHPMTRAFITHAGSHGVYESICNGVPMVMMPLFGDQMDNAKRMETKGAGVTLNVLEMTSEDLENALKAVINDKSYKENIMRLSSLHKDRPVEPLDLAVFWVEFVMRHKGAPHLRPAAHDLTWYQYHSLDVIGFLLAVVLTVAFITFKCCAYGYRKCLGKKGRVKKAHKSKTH
Chain of UGT2B15 (P54855 24-530): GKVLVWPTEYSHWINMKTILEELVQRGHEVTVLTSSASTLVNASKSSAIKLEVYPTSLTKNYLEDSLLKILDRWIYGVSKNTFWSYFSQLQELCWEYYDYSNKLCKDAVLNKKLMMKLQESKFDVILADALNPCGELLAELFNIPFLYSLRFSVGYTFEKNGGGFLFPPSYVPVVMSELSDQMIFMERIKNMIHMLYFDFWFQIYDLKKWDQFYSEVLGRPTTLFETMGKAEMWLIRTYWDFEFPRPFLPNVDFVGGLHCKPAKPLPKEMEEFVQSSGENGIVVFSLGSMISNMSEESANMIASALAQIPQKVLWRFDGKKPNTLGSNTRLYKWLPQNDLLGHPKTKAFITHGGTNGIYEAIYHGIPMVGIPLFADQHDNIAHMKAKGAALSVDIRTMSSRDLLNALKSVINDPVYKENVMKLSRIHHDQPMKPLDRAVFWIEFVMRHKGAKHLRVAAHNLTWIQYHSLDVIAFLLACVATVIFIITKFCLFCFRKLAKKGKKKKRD

SMILES: O=C(O)[C@@H](O)[C@H]1OC(=O)[C@H](O)[C@H]1O [saccharolactone, D-saccharic acid 1,4-lactone]
- Codeine glucuronidation, % of the control activity (measured at 0 mM) ([1]; 1 mM saccharolactone): 98±7%
- Codeine glucuronidation, % of the control activity (measured at 0 mM) ([1]; 2 mM saccharolactone): 97±4%
- Codeine glucuronidation, % of the control activity (measured at 0 mM) ([1]; 5 mM saccharolactone): 91±2 ^a %
- Codeine glucuronidation, % of the control activity (measured at 0 mM) ([1]; 10 mM saccharolactone): 95±5%
- Codeine glucuronidation, % of the control activity (measured at 0 mM) ([1]; 20 mM saccharolactone): 88±8%
- inhibition of codeine glucuronidation ([1]; pHLMs, 5 mM saccharolactone, p<0.05): 9%
- decrease in e-4-hydroxy-tamoxifen glucuronidation activity (UGT2B15): 25%
- Codeine glucuronidation, % of the control activity (measured at 0 mM) (UGT2B4; 5 mM saccharolactone): 91±4%
- Codeine glucuronidation, % of the control activity (measured at 0 mM) (UGT2B4; 20 mM saccharolactone): 88±2%
- 5-HT glucuronidation, % of the control activity (measured at 0 mM) (UGT1A6 (insect); 5 mM saccharolactone): 88±7%
- 5-HT glucuronidation, % of the control activity (measured at 0 mM) (UGT1A6 (insect); 20 mM saccharolactone): 96±0%
- effect on 5-hydroxytryptamine glucuronidation (UGT1A6 (insect); UGT1A6 expressed in insect cells, saccharolactone up to 20 mM): no effect
- effect on partial clearance of diflunisal acyl glucuronide (rats): increase
- effect on partial clearance of diflunisal phenol glucuronide (rats): little effect
- Estradiol-3 glucuronidation, % of the control activity (measured at 0 mM) (UGT1A1; 5 mM saccharolactone): 92±2%
- Estradiol-3 glucuronidation, % of the control activity (measured at 0 mM) (UGT1A1; 20 mM saccharolactone): 87±5%
- effect on estradiol glucuronidation (UGT1A1; recombinant UGT1A1): no effect
- AZT glucuronidation, % of the control activity (measured at 0 mM) ([2]; 1 mM saccharolactone): 96±2%
- AZT glucuronidation, % of the control activity (measured at 0 mM) ([2]; 2 mM saccharolactone): 98±2%
- AZT glucuronidation, % of the control activity (measured at 0 mM) ([2]; 5 mM saccharolactone): 94±2%
- AZT glucuronidation, % of the control activity (measured at 0 mM) ([2]; 10 mM saccharolactone): 94±3%
- AZT glucuronidation, % of the control activity (measured at 0 mM) ([2]; 20 mM saccharolactone): 94±1%
- change in diflunisal phenol glucuronide formation (rat liver microsomes): no change
- increase of diflunisal acyl glucuronide formation (Vmax) (rat liver microsomes): 2 fold
- Salicylic Acid glucuronidation, % of the control activity (measured at 0 mM) (UGT1A9; 5 mM saccharolactone): 96±7%
- Salicylic Acid glucuronidation, % of the control activity (measured at 0 mM) (UGT1A9; 20 mM saccharolactone): 99±7%
- effect on raloxifene glucuronidation (HLMs): inhibited
- pH of incubation buffer after adding saccharolactone ([3]; 20 mM saccharolactone in 50 mM potassium phosphate, initially pH 7.5): 6.8
- effect on pH of incubation buffer ([3]; saccharolactone up to 5 mM in 50 mM potassium phosphate pH 7.5): minimal effect on pH
- Trifluoperazine glucuronidation, % of the control activity (measured at 0 mM) ([4]; 1 mM saccharolactone): 98±5%
- Trifluoperazine glucuronidation, % of the control activity (measured at 0 mM) ([4]; 2 mM saccharolactone): 101±9%
- Trifluoperazine glucuronidation, % of the control activity (measured at 0 mM) ([4]; 5 mM saccharolactone): 95±3%
- Trifluoperazine glucuronidation, % of the control activity (measured at 0 mM) ([4]; 10 mM saccharolactone): 93±4%
- Trifluoperazine glucuronidation, % of the control activity (measured at 0 mM) ([4]; 20 mM saccharolactone): 97±5%
- Estradiol-3 glucuronidation, % of the control activity (measured at 0 mM) ([5]; 1 mM saccharolactone): 68±5%
- Estradiol-3 glucuronidation, % of the control activity (measured at 0 mM) ([5]; 2 mM saccharolactone): 84±1%
- Estradiol-3 glucuronidation, % of the control activity (measured at 0 mM) ([5]; 5 mM saccharolactone): 76±9 ^a %
- Estradiol-3 glucuronidation, % of the control activity (measured at 0 mM) ([5]; 10 mM saccharolactone): 67±5 ^a %
- Estradiol-3 glucuronidation, % of the control activity (measured at 0 mM) ([5]; 20 mM saccharolactone): 67±7 ^a %
- decrease in estradiol-3 glucuronidation activity ([5]; pHLMs, 20 mM saccharolactone, p<0.05): 33%
- 5-HT glucuronidation, % of the control activity (measured at 0 mM) (UGT1A6 (HEK293); 5 mM saccharolactone): 91±6%
- 5-HT glucuronidation, % of the control activity (measured at 0 mM) (UGT1A6 (HEK293); 20 mM saccharolactone): 90±7%
- effect on 5-hydroxytryptamine glucuronidation (UGT1A6 (HEK293); UGT1A6 expressed in mammalian (HEK293) cells, saccharolactone up to 20 mM): no effect
- 5-HT glucuronidation, % of the control activity (measured at 0 mM) ([6]; 1 mM saccharolactone (pH-adjusted)): 104±8%
- 5-HT glucuronidation, % of the control activity (measured at 0 mM) ([6]; 2 mM saccharolactone (pH-adjusted)): 93±5%
- 5-HT glucuronidation, % of the control activity (measured at 0 mM) ([6]; 5 mM saccharolactone (pH-adjusted)): 86±4 ^a %
- 5-HT glucuronidation, % of the control activity (measured at 0 mM) ([6]; 10 mM saccharolactone (pH-adjusted)): 87±4 ^a %
- 5-HT glucuronidation, % of the control activity (measured at 0 mM) ([6]; 20 mM saccharolactone (pH-adjusted)): 63±5 ^a %
